What follows are compounds tested on parasites (ring stage, in human red blood cell culture) (assay: Parasite LDH growth assay (antiparasite potency, Parasite Assay)). Details: 0.7% rings, 2% haematocrit, 72 hours at 37° C., LDH readout of parasite growth.
Format: cell-based, Plasmodium falciparum
Procedure, shortened: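 Ring-stage parasites at 0.7% parasitemia and 2% haematocrit, in RPMI-Hepes/bicarbonate with 5% heat-inactivated human serum and 0.5% albumax, were added to compound-containing medium. Cultures grew 72 h at 37 °C in gassed humidified boxes. Plates were then frozen overnight at −80 °C, thawed 4 h, and growth was measured by LDH assay.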

In the case of `CC1(C)CC(=O)N([C@@H]2CCOc3ccc(C(=O)N[C@H]4CC(C)(C)Oc5ccccc54)cc32)C(=N)N1` [Example 106, (4R)-N-[(4S)-2,2-dimethylchroman-4-yl]-4-(2-imino-4,4-dimethyl-6-oxo-hexahydropyrimidin-1-yl)chromane-6-carboxamide], the EC50 is reported as 6.6 nM.

Same assay, conditions: Plasmodium falciparum, Erythrocyte, 72 h, 0.7% rings, 2% haematocrit, 72 hours at 37° C., LDH readout of parasite growth

`CCC1(CC)CC(=O)N([C@@H]2CCOc3ccc(C(=O)N[C@@H](CO)c4ccccc4)cc32)C(=N)N1` [Example 92, (4R)-4-(4,4-diethyl-2-imino-6-oxo-hexahydropyimidin-1-yl)-N-[(1R)-2-hydroxy-1-phenyl-ethyl]chromane-6-carboxamide] and `CCC1(CC)CC(=O)N([C@@H]2CCOc3ccc(C(=O)N[C@@H](C)c4ccccc4OC)cc32)C(=N)N1` [Example 111, (4R)-4-(4,4-diethyl-2-imino-6-oxo-hexahydropyrimidin-1-yl)-N-[(1S)-1-(2-methoxyphenyl)ethyl]chromane-6-carboxamide] are within 1.5-fold of each other in EC50: 97.2 nM for the first, 90 nM for the second.

`CC1(C)CC(=O)N(C2CC(C)(C)c3ccc(C(=O)N[C@@H]4c5ccccc5C[C@@]4(C)O)cc32)C(=N)N1` (stereo partly drawn) [Example 93, N-[(1R,2R)-2-hydroxy-2-methyl-indan-1-yl]-3-(2-imino-4,4-dimethyl-6-oxo-hexahydropyrimidin-1-yl)-1,1-dimethyl-indane-5-carboxamide] and `CC1(C)CC(=O)N(C2c3cc(C(=O)N[C@@H]4c5ccccc5C[C@@]4(C)O)ccc3OC2(C)C)C(=N)N1` (stereo partly drawn) [Example 107, N-[(1R,2R)-2-hydroxy-2-methyl-indan-1-yl]-3-(2-imino-4,4-dimethyl-6-oxo-hexahydropyrimidin-1-yl)-2,2-dimethyl-3H-benzofuran-5-carboxamide] are within 1.5-fold of each other in EC50: 190 nM for the first, 222 nM for the second.

Going from `CCC1(CC)CC(=O)N([C@@H]2CCCc3ccc(C(=O)N[C@@H]4c5ccccc5C[C@H]4O)cc32)C(=N)N1` [Example 94, (4R)-4-(4,4-diethyl-2-imino-6-oxo-hexahydropyrimidin-1-yl)-N-[(1R,2R)-2-hydroxyindan-1-yl]tetralin-6-carboxamide] to `CCC1(CC)CC(=O)N([C@@H]2CCOc3ccc(C(=O)N[C@@H]4c5ccccc5C[C@H]4N)cc32)C(=N)N1` [Example 97, (4R)-N-[(1R,2R)-2-aminoindan-1-yl]-4-(4,4-diethyl-2-imino-6-oxo-hexahydropyrimidin-1-yl)chromane-6-carboxamide], the EC50 rises from 1.9 nM to 19 nM (10-fold).

`CC[C@]1(C)CC(=O)N([C@@H]2C[C@@H](C)c3ccc(C(=O)N[C@@H]4c5ccccc5C[C@@]4(C)O)cc32)C(=N)N1` [Example 95, (1R,3R)-3-[(4R)-4-ethyl-2-imino-4-methyl-6-oxo-hexahydropyrimidin-1-yl]-N-[(1R,2R)-2-hydroxy-2-methyl-indan-1-yl]-1-methyl-indane-5-carboxamide] and `CC[C@]1(C)CC(=O)N([C@@H]2C[C@@H](C)c3ccc(C(=O)N[C@@H]4c5ccccc5C[C@]4(C)O)cc32)C(=N)N1` [Example 96, (1R,3R)-3-[(4R)-4-ethyl-2-imino-4-methyl-6-oxo-hexahydropyrimidin-1-yl]-N-[(1R,2S)-2-hydroxy-2-methyl-indan-1-yl]-1-methyl-indane-5-carboxamide] are within 1.5-fold of each other in EC50: 8.8 nM for the first, 6.5 nM for the second.

Compared with `CC1(C)CC(=O)N([C@@H]2CCc3ccc(C(=O)N[C@@H]4c5ccccc5OC(C)(C)[C@H]4O)cc32)C(=N)N1` [Example 98, (3R)-N-[(3S,4R)-3-hydroxy-2,2-dimethyl-chroman-4-yl]-3-(2-imino-4,4-dimethyl-6-oxo-hexahydropyrimidin-1-yl)indane-5-carboxamide], `CC1(C)CC(=O)N(C2CC(C)(C)c3ccc(C(=O)N[C@@H]4c5ccccc5OC[C@H]4O)cc32)C(=N)N1` (stereo partly drawn) [Example 101, N-[(3S,4R)-3-hydroxychroman-4-yl]-3-(2-imino-4,4-dimethyl-6-oxo-hexahydropyrimidin-1-yl)-1,1-dimethyl-indane-5-carboxamide] is 31-fold higher in EC50: 1.5 nM for the first, 46.7 nM for the second.

`CC[C@]1(C)CC(=O)N([C@@H]2CCc3ccc(C(=O)N[C@@H]4c5ccccc5OC[C@]4(C)O)cc32)C(=N)N1` [Example 99, (3R)-3-[(4R)-4-ethyl-2-imino-4-methyl-6-oxo-hexahydropyrimidin-1-yl]-N-[(3R,4R)-3-hydroxy-3-methyl-chroman-4-yl]indane-5-carboxamide] and `CC[C@]1(C)CC(=O)N([C@@H]2CCc3ccc(C(=O)N[C@@H]4c5ccccc5OC[C@@]4(C)O)cc32)C(=N)N1` [Example 100, (3R)-3-[(4R)-4-ethyl-2-imino-4-methyl-6-oxo-hexahydropyrimidin-1-yl]-N-[(3S,4R)-3-hydroxy-3-methyl-chroman-4-yl]indane-5-carboxamide] are within 1.5-fold of each other in EC50: 4.2 nM for the first, 5.3 nM for the second.

First: CC[C@]1(C)CC(=O)N([C@@H]2C[C@@H](C)Oc3ccc(C(=O)N[C@@H]4c5ccccc5C[C@H]4O)cc32)C(=N)N1 [Example 102, (2R,4R)-4-[(4R)-4-ethyl-2-imino-4-methyl-6-oxo-hexahydropyrimidin-1-yl]-N-[(1R,2R)-2-hydroxyindan-1-yl]-2-methyl-chromane-6-carboxamide]
Second: COC1COc2ccc(C(=O)N[C@@H]3c4ccccc4C[C@H]3O)cc2C1N1C(=N)NC(C)(C)CC1=O (stereo partly drawn) [Example 110, N-[(1R,2R)-2-hydroxyindan-1-yl]-4-(2-imino-4,4-dimethyl-6-oxo-hexahydropyrimidin-1-yl)-3-methoxy-chromane-6-carboxamide]
The EC50 of the first is 4.3-fold lower: 14 nM for the first, 60 nM for the second.

`C[C@@H]1C[C@@H](N2C(=N)NC(C)(C)CC2=O)c2cc(C(=O)N[C@@H]3c4ccccc4OC[C@]3(C)O)ccc21` [Example 103, (1R,3R)-N-[(3R,4R)-3-hydroxy-3-methyl-chroman-4-yl]-3-(2-imino-4,4-dimethyl-6-oxo-hexahydropyrimidin-1-yl)-1-methyl-indane-5-carboxamide] and `C[C@@H]1C[C@@H](N2C(=N)NC(C)(C)CC2=O)c2cc(C(=O)N[C@@H]3c4ccccc4OC[C@@]3(C)O)ccc21` [Example 104, (1R,3R)-N-[(3S,4R)-3-hydroxy-3-methyl-chroman-4-yl]-3-(2-imino-4,4-dimethyl-6-oxo-hexahydropyrimidin-1-yl)-1-methyl-indane-5-carboxamide] are within 1.5-fold of each other in EC50: 6.1 nM for the first, 5 nM for the second.

Compared with `CCC1(CC)CC(=O)N(C2Cc3ccc(C(=O)N[C@@H]4c5ccccc5OC[C@@]4(C)O)cc32)C(=N)N1` (stereo partly drawn) [Example 105, 8-(4,4-diethyl-2-imino-6-oxo-hexahydropyrimidin-1-yl)-N-[(3S,4R)-3-hydroxy-3-methyl-chroman-4-yl]bicyclo[4.2.0]octa-1(6),2,4-triene-3-carboxamide], `CC1(C)CC(=O)N(C2c3cc(C(=O)N[C@@H]4c5ccccc5C[C@]4(C)O)ccc3OC2(C)C)C(=N)N1` (stereo partly drawn) [Example 108, N-[(1R,2S)-2-hydroxy-2-methyl-indan-1-yl]-3-(2-imino-4,4-dimethyl-6-oxo-hexahydropyrimidin-1-yl)-2,2-dimethyl-3H-benzofuran-5-carboxamide] is 8.4-fold higher in EC50: 8.8 nM for the first, 74.3 nM for the second.

`CO[C@@H]1COc2ccccc2[C@H]1NC(=O)c1ccc2c(c1)[C@H](N1C(=N)NC(C)(C)CC1=O)CCO2` [Example 109, (4R)-4-(2-imino-4,4-dimethyl-6-oxo-hexahydropyrimidin-1-yl)-N-[(3S,4R)-3-methoxychroman-4-yl]chromane-6-carboxamide] and `CC1(C)CC(=O)N([C@@H]2CCOc3ccc(C(=O)N[C@@H]4c5cc(F)ccc5OC[C@H]4O)cc32)C(=N)N1` [Example 112, (4R)-N-[(3S,4R)-6-fluoro-3-hydroxy-chroman-4-yl]-4-(2-imino-4,4-dimethyl-6-oxo-hexahydropyrimidin-1-yl)chromane-6-carboxamide] are within 1.5-fold of each other in EC50: 14 nM for the first, 11.4 nM for the second.

From US12350270B2, “Antimalarial agents” (Merck Sharp & Dohme LLC, priority 2019, dated 2025)
